Measured values: ChEMBL document CHEMBL3885881, “DrugMatrix”

Organism: Rattus norvegicus
Test: DrugMatrix - Regimen: Daily Repeat
Format: toxicity, organism-based, Sprague-Dawley
Set-up: regimen Daily Repeat, gender Male, age 6-8 weeks
Settings: in vivo, po, route oral GAVAGE, vehicle .5 % CMC; for BASOPHIL / EOSINOPHIL / ERYTHROCYTE COUNT / HEMATOCRIT / HEMOGLOBIN / LYMPHOCYTE / MEAN CORPUSCULAR HEMOGLOBIN / MEAN CORPUSCULAR HEMOGLOBIN CONCENTRATION / MEAN CORPUSCULAR VOLUME / MONOCYTE / NEUTROPHIL / PLATELET COUNT: tissue Blood; for ALANINE AMINOTRANSFERASE / ALBUMIN / ALKALINE PHOSPHATASE / ASPARTATE AMINOTRANSFERASE / BLOOD UREA NITROGEN / CHOLESTEROL / CREATINE PHOSPHOKINASE / CREATININE / GLUCOSE / PHOSPHORUS / POTASSIUM / SODIUM / TOTAL BILIRUBIN / TOTAL PROTEIN: tissue Plasma
[1] = 0 mg/kg, 72 h, dose level Control, time 3 day
[2] = 0 mg/kg, 120 h, dose level Control, time 5 day
[3] = 20 mg/kg, 72 h, dose level Low, time 3 day
[4] = 20 mg/kg, 120 h, dose level Low, time 5 day

Question: What does the source list for CN(C)CCC=C1c2ccccc2COc2ccccc21 [DOXEPIN]?
Answer: BASOPHIL [1]: 0%; EOSINOPHIL [1]: 0.33%; ERYTHROCYTE COUNT [1]: 6.2 x10E6/uL; HEMATOCRIT [1]: 38.08%; HEMOGLOBIN [1]: 14.92 G/DL; LYMPHOCYTE [1]: 76%; MEAN CORPUSCULAR HEMOGLOBIN [1]: 24.1 pg; MEAN CORPUSCULAR HEMOGLOBIN CONCENTRATION [1]: 39.17 G/DL; MEAN CORPUSCULAR VOLUME [1]: 61.48 fL; MONOCYTE [1]: 3.83%; NEUTROPHIL [1]: 19.83%; PLATELET COUNT [1]: 1327.5 x10E3/uL; ALANINE AMINOTRANSFERASE [1]: 40.17 u/L; ALBUMIN [1]: 4.07 G/DL; ALKALINE PHOSPHATASE [1]: 372 u/L; ASPARTATE AMINOTRANSFERASE [1]: 67.17 u/L; BLOOD UREA NITROGEN [1]: 18.83 mg/dL; CHOLESTEROL [1]: 78.17 mg/dL; CREATINE PHOSPHOKINASE [1]: 149.17 u/L; CREATININE [1]: 0.57 mg/dL; GLUCOSE [1]: 185.17 mg/dL; PHOSPHORUS [1]: 11.43 mg/dL; POTASSIUM [1]: 6.78 MEQ/L; SODIUM [1]: 152.83 MEQ/L; TOTAL BILIRUBIN [1]: 0.4 mg/dL; TOTAL PROTEIN [1]: 6.87 G/DL; BASOPHIL [2]: 0%; EOSINOPHIL [2]: 0%; ERYTHROCYTE COUNT [2]: 6.05 x10E6/uL; HEMATOCRIT [2]: 36.55%; HEMOGLOBIN [2]: 14.7 G/DL; LYMPHOCYTE [2]: 86.83%; MEAN CORPUSCULAR HEMOGLOBIN [2]: 24.37 pg; MEAN CORPUSCULAR HEMOGLOBIN CONCENTRATION [2]: 40.32 G/DL; MEAN CORPUSCULAR VOLUME [2]: 60.47 fL; MONOCYTE [2]: 0.83%; NEUTROPHIL [2]: 12.33%; PLATELET COUNT [2]: 1177 x10E3/uL; ALANINE AMINOTRANSFERASE [2]: 41.83 u/L; ALBUMIN [2]: 3.75 G/DL; ALKALINE PHOSPHATASE [2]: 377.5 u/L; ASPARTATE AMINOTRANSFERASE [2]: 60.83 u/L; BLOOD UREA NITROGEN [2]: 16 mg/dL; CHOLESTEROL [2]: 67.83 mg/dL; CREATINE PHOSPHOKINASE [2]: 120.33 u/L; CREATININE [2]: 0.6 mg/dL; GLUCOSE [2]: 167.67 mg/dL; PHOSPHORUS [2]: 10.03 mg/dL; POTASSIUM [2]: 6.68 MEQ/L; SODIUM [2]: 150.5 MEQ/L; TOTAL BILIRUBIN [2]: 0.57 mg/dL; TOTAL PROTEIN [2]: 6.25 G/DL; BASOPHIL [3]: 0%; EOSINOPHIL [3]: 0%; ERYTHROCYTE COUNT [3]: 5.9 x10E6/uL; HEMATOCRIT [3]: 36.4%; HEMOGLOBIN [3]: 14.15 G/DL; LYMPHOCYTE [3]: 83%; MEAN CORPUSCULAR HEMOGLOBIN [3]: 24 pg; MEAN CORPUSCULAR HEMOGLOBIN CONCENTRATION [3]: 38.9 G/DL; MEAN CORPUSCULAR VOLUME [3]: 61.75 fL; MONOCYTE [3]: 0%; NEUTROPHIL [3]: 17%; PLATELET COUNT [3]: 1287.5 x10E3/uL; ALANINE AMINOTRANSFERASE [3]: 38.33 u/L; ALBUMIN [3]: 3.6 G/DL; ALKALINE PHOSPHATASE [3]: 352.33 u/L; ASPARTATE AMINOTRANSFERASE [3]: 56.67 u/L; BLOOD UREA NITROGEN [3]: 11.67 mg/dL; CHOLESTEROL [3]: 72.67 mg/dL; CREATINE PHOSPHOKINASE [3]: 139.33 u/L; CREATININE [3]: 0.53 mg/dL; GLUCOSE [3]: 179.67 mg/dL; PHOSPHORUS [3]: 11.8 mg/dL; POTASSIUM [3]: 6.33 MEQ/L; SODIUM [3]: 150 MEQ/L; TOTAL BILIRUBIN [3]: 0.2 mg/dL; TOTAL PROTEIN [3]: 5.83 G/DL; BASOPHIL [4]: 0%; EOSINOPHIL [4]: 0%; ERYTHROCYTE COUNT [4]: 6.16 x10E6/uL; HEMATOCRIT [4]: 37.07%; HEMOGLOBIN [4]: 14.67 G/DL; LYMPHOCYTE [4]: 91.67%; MEAN CORPUSCULAR HEMOGLOBIN [4]: 23.87 pg; MEAN CORPUSCULAR HEMOGLOBIN CONCENTRATION [4]: 39.57 G/DL; MEAN CORPUSCULAR VOLUME [4]: 60.23 fL; MONOCYTE [4]: 0.33%; NEUTROPHIL [4]: 8%; PLATELET COUNT [4]: 1231.33 x10E3/uL; ALANINE AMINOTRANSFERASE [4]: 36 u/L; ALBUMIN [4]: 3.67 G/DL; ALKALINE PHOSPHATASE [4]: 311.33 u/L; ASPARTATE AMINOTRANSFERASE [4]: 55.67 u/L; BLOOD UREA NITROGEN [4]: 12.67 mg/dL; CHOLESTEROL [4]: 71.33 mg/dL; CREATINE PHOSPHOKINASE [4]: 153 u/L; CREATININE [4]: 0.6 mg/dL; GLUCOSE [4]: 161.33 mg/dL; PHOSPHORUS [4]: 12.47 mg/dL; POTASSIUM [4]: 6.8 MEQ/L; SODIUM [4]: 151.67 MEQ/L; TOTAL BILIRUBIN [4]: 0.43 mg/dL; TOTAL PROTEIN [4]: 6.17 G/DL
